In patent publication US11214556B1, “Method of treating colorectal cancer” (King Abdulaziz University, priority 2019, dated 2022):

Experiments:
HCT-116 cells = experiment: SRB cytotoxicity assay, HCT-116; format: cell-based, human; conditions: SRB assay, 72 h exposure, ± SEM
Protocol: Compounds in this study were tested against colorectal cancer cell line HCT-116, using sulforhodamine-B (SRB) assay. See Skehan, P.; Storeng, R.; Scudiero, D.; Monks, A.; McMahon, J.; Vistica, D.; Warren, J. T.; Bokesch, H.; Kenney, S.; Boyd, M. R., New colorimetric cytotoxicity assay for anticancer-drug screening. J Natl Cancer Inst 1990, 82 (13), 1107-12, incorporated herein by reference in its entirety. […] However, it was clear that compounds bearing hydrophobic aliphatic groups such as MOS-1505 and MOS-1512 are clearly favored in providing anticancer activities. […] The N-aryl substituents were less advantageous in both potency and solubility.
(§1) Different cell lines were originally purchased from American type culture collection (ATCC, Wesel, Germany) and grown in the tissue culture lab of the Egyptian company for production of vaccines, sera and drugs (Vacsera, Giza, Egypt). The cells were transferred to our laboratory and maintained in the appropriate media as following. HCT-116, CACO-2, and HT-29 (human colon cancer cell lines) were maintained in Roswell Park Memorial Institute medium (RPMI1640) (Invitrogen, Carlsbad, Calif.). The mouse skin fibroblasts (C-166) and Baby Hamster Kidney fibroblasts (BHK) were grown in Dulbecco Modified Eagle's medium (DMEM). Both media were supplemented with 1% of […] of streptomycin, 100 units/mL of penicillin and 10% of heat-inactivated fetal bovine serum (Invitrogen, Carlsbad, Calif.) in a humidified, 5% (v/v) CO2 atmosphere at 37° C.
(§2) The sulforhodamine B (SRB) assays were performed according to Skehan, P.; Storeng, R.; Scudiero, D.; Monks, A.; McMahon, J.; Vistica, D.; Warren, J. T.; Bokesch, H.; Kenney, S.; Boyd, M. R., New colorimetric cytotoxicity assay for anticancer-drug screening. J Natl Cancer Inst 1990, 82 (13), 1107-12, incorporated herein by reference in its entirety. Briefly, exponentially growing cells were trypsinized, counted and seeded at the appropriate densities (5000 cells/100 μL/well) into 96-well microtiter plates. Cells were incubated in a humidified atmosphere at 37° C. for 24 h. Then, the cells were exposed to different compounds at the desired concentrations, (0.01, 0.1, 1, 10, and 100 μM) or to 1% dimethyl sulfoxide (DMSO) for 72 h. At the end of the treatment period, the media were removed, and the cells were fixed with 10% trichloroacetic acid at 4° C. for 1 hr. Following, the cells were washed with tap water four times and incubated with SRB 0.4% for 30 min. Excess dye was removed by washing repeatedly with 1% (vol/vol) acetic acid. The protein-bound dye was dissolved in 10 mM Tris base solution for (optical density) OD determination at 510 nm using a SpectraMax plus Microplate Reader (Molecular Devices, CA). Cell viability was expressed relative to the untreated control cells.

Solubility profile = format: physicochemical; conditions: stated in words together with C log P
HT-29 cells = experiment: SRB cytotoxicity assay, HT-29; format: cell-based, human; conditions: 72 h exposure, ± SEM
Text: (§3) Based on the favorable pharmacologic and physicochemical properties of MOS-1512, it was selected as a new lead for the second subset of compounds (MOS-1812 to MOS-5112). The compounds in this series contained variable groups at R^1 and R^2 that were all tested against the three cancer cell lines (HCT-116, Caco-2 and HT-29).
as §1, §2

[1] = tested on: CRC cell lines (HCT-116, Caco-2 and HT-29); experiment: Cytotoxic activities against CRC cell lines (statement over three lines); format: cell-based; conditions: Homo sapiens
Text: as §3, §1, §2

CACO-2 cells = experiment: SRB cytotoxicity assay, CACO-2; format: cell-based, human; conditions: ± SEM
Text: as §3, §1, §2

[2] = Homo sapiens, Caco-2, 72 h exposure

`CCOC(=O)/C(=C/c1ccccc1)NC(=O)C=Cc1ccccc1` [Compound 15EE, Ethyl (Z)-2-cinnamamido-3-phenylacrylate] gave a melting point of 153 °C.
`O=C(C=Cc1ccccc1)N/C(=C\c1ccccc1)C(=O)NC1CCCC1` [Compound 1503, (Z)-2-cinnamamido-N-cyclopentyl-3-phenylacrylamide] gave an IC50 (HCT-116 cells; Homo sapiens, HCT-116) of 48.5 ± 3.1 µM and a melting point of 239 °C.
With `O=C(C=Cc1ccccc1)N/C(=C\c1ccccc1)C(=O)NC12CC3CC(CC(C3)C1)C2` [Compound 1505, (Z)—N-(1-adamantanyl)-2-cinnamamido-3-phenylacrylamide] the solubility (Solubility profile) was “poor solubility” and the IC50 (HCT-116 cells; Homo sapiens, HCT-116) was 14.7 ± 0.3 µM.
With `O=C(/C=C/c1ccccc1)N/C(=C\c1ccccc1)C(=O)Nc1cccnc1` [Compound 1507, (Z)-2-[(E)-cinnamamido]-3-phenyl-N-(3-pyridyl)acrylamide] the IC50 (HCT-116 cells; Homo sapiens, HCT-116) was over 100 µM and the melting point was > 250 °C (dec.).
Compound `O=C(/C=C/c1ccccc1)N/C(=C\c1ccccc1)C(=O)NCCO` [Compound 1532, (Z)-2-[(E)-cinnamamido]-N-(2-hydroxyethyl)-3-phenyl-acrylamide] has an IC50 (HCT-116 cells; Homo sapiens, HCT-116) of over 100 µM and a melting point of 204 °C.
Work on `CCCNC(=O)/C(=C/c1ccc(F)cc1)NC(=O)/C=C/c1ccc(Cl)cc1` [Compound 2312, (Z)-2-[(E)-3-(4-chlorophenyl)acrylamido]-3-(4-fluorophenyl)-N-propylacrylamide] yielded an IC50 (HT-29 cells; Homo sapiens, HT-29, monolayer) of 4 ± 0.14 µM, an IC50 (HCT-116 cells; Homo sapiens, HCT-116) of 3.8 ± 0.24 µM and an IC50 [1] of under 5 µM. It also gave an IC50 (CACO-2 cells; [2]) of 2.6 ± 0.233 µM.
For `CCCNC(=O)/C(=C/c1ccc(N(C)C)cc1)NC(=O)/C=C/c1ccc(Cl)cc1` [Compound 2812, (Z)-2-[(E)-3-(4-chlorophenyl)acrylamido]-3-[4-(dimethylamino)phenyl]-N-propylacrylamide], the IC50 (HT-29 cells; Homo sapiens, HT-29, monolayer) was 9.52 ± 0.42 µM, the IC50 (HCT-116 cells; Homo sapiens, HCT-116) was 20.7 ± 0.32 µM and the IC50 [1] was under 5 µM. The IC50 (CACO-2 cells; [2]) was 17 ± 0.8 µM.
Work on `CCCNC(=O)/C(=C/c1c[nH]c2ccccc12)NC(=O)/C=C/c1ccc(Cl)cc1` [Compound 3812, (Z)-2-[(E)-3-(4-chlorophenyl)acrylamido]-3-(1H-indol-3-yl)-N-propylacrylamide] yielded an IC50 (HT-29 cells; Homo sapiens, HT-29, monolayer) of 3.41 ± 0.03 µM, an IC50 (HCT-116 cells; Homo sapiens, HCT-116) of 3.51 ± 0.21 µM and an IC50 [1] of under 5 µM. It also gave an IC50 (CACO-2 cells; [2]) of 3.35 ± 0.05 µM.
Work on `CCCNC(=O)/C(=C/c1c[nH]c2ccccc12)NC(=O)/C=C/c1ccc(OC)cc1` [Compound 3912, (Z)-3-(1H-indol-3-yl)-2-[(E)-3-(4-methoxyphenyl)acrylamido]-N-propylacrylamide] yielded an IC50 (HT-29 cells; Homo sapiens, HT-29, monolayer) of 2.49 ± 0.04 µM, an IC50 (HCT-116 cells; Homo sapiens, HCT-116) of 4.35 ± 0.29 µM and an IC50 [1] of under 5 µM. For the same compound, the IC50 (CACO-2 cells; [2]) was 2.07 ± 0.03 µM.
Compound `CCCNC(=O)/C(=C/c1cccnc1)NC(=O)C=Cc1ccccc1` [Compound 4212, (Z)-2-cinnamamido-N-propyl-3-(pyridin-3-yl)acrylamide] has an IC50 (HT-29 cells; Homo sapiens, HT-29, monolayer) of over 100 µM, an IC50 (HCT-116 cells; Homo sapiens, HCT-116) of 73 ± 2.5 µM and an IC50 (CACO-2 cells; [2]) of 66 ± 2.2 µM.
In the case of `CCCNC(=O)/C(=C/c1cccnc1)NC(=O)/C=C/c1ccc(Cl)cc1` [Compound 4312, (Z)-2-[(E)-3-(4-chlorophenyl)acrylamido]-N-propyl-3-(pyridin-3-yl)acrylamide], the IC50 (HT-29 cells; Homo sapiens, HT-29, monolayer) is reported as 36 ± 1.7 µM, the IC50 (HCT-116 cells; Homo sapiens, HCT-116) is reported as 49.4 ± 1.9 µM and the IC50 (CACO-2 cells; [2]) is reported as 47.3 ± 1.9 µM.
`CCCNC(=O)/C(=C/c1cccnc1)NC(=O)/C=C/c1ccc(OC)cc1` [Compound 4412, (Z)-2-[(E)-3-(4-methoxyphenyl)acrylamido]-N-propyl-3-(pyridin-3-yl)acrylamide] gave an IC50 (HT-29 cells; Homo sapiens, HT-29, monolayer) of 72.7 ± 6.4 µM, an IC50 (HCT-116 cells; Homo sapiens, HCT-116) of 52.1 ± 1.6 µM and an IC50 (CACO-2 cells; [2]) of 38.1 ± 2 µM.
For `CCCNC(=O)/C(=C/c1cccnc1)NC(=O)/C=C/c1ccc(C)cc1` [Compound 4512, (Z)—N-propyl-3-(pyridin-3-yl)-2-[(E)-3-(p-tolyl)acrylamidolacry]amide], the IC50 (HT-29 cells; monolayer) was over 100 µM, the IC50 (HCT-116 cells) was over 100 µM and the IC50 (CACO-2 cells; 72 h exposure) was 27 ± 1.8 µM.
Compound `CCCNC(=O)/C(=C/c1cccnc1)NC(=O)/C=C/c1cccs1` [Compound 4612, (Z)—N-propyl-3-(pyridin-3-yl)-2-[(E)-3-(thien-2-yl)acrylamidolacry]amide] has an IC50 (HT-29 cells; monolayer) of 68.8 ± 6.9 µM, an IC50 (HCT-116 cells) of over 100 µM and an IC50 (CACO-2 cells; 72 h exposure) of 41.8 ± 1.4 µM.
Compound `CCCNC(=O)/C(=C/c1ccc([N+](=O)[O-])cc1)NC(=O)C=Cc1ccccc1` [Compound 4712, (Z)-2-cinnamamido-3-(4-nitrophenyl)-N-propylacrylamide] has an IC50 (HT-29 cells; Homo sapiens, HT-29, monolayer) of 23.2 ± 1.9 µM, an IC50 (HCT-116 cells; Homo sapiens, HCT-116) of 17.3 ± 1.3 µM and an IC50 (CACO-2 cells; [2]) of 44.2 ± 2.7 µM.
Work on `CCCNC(=O)/C(=C/c1ccc([N+](=O)[O-])cc1)NC(=O)/C=C/c1ccc(Cl)cc1` [Compound 4812, (Z)-2-[(E)-3-(4-chlorophenyl)acrylamido]-3-(4-nitrophenyl)-N-propylacrylamide] yielded an IC50 (HT-29 cells; Homo sapiens, HT-29, monolayer) of 36.9 ± 1.5 µM, an IC50 (HCT-116 cells; Homo sapiens, HCT-116) of over 100 µM and an IC50 (CACO-2 cells; [2]) of over 100 µM.
In the case of `CCCNC(=O)/C(=C/c1ccc([N+](=O)[O-])cc1)NC(=O)/C=C/c1ccc(OC)cc1` [Compound 4912, (Z)-2-[(E)-3-(4-methoxyphenyl)acrylamido]-3-(4-nitrophenyl)-N-propylacrylamide], the IC50 (HT-29 cells; Homo sapiens, HT-29, monolayer) is reported as 74.3 ± 3.6 µM, the IC50 (HCT-116 cells; Homo sapiens, HCT-116) is reported as over 100 µM and the IC50 (CACO-2 cells; [2]) is reported as over 100 µM.
With `CCCNC(=O)/C(=C/c1ccc([N+](=O)[O-])cc1)NC(=O)/C=C/c1ccc(C)cc1` [Compound 5012, (Z)-3-(4-nitrophenyl)-N-propyl-2-[(E)-3-(p-tolyl)acrylamidolacry]amide] the IC50 (HT-29 cells; monolayer) was over 100 µM, the IC50 (HCT-116 cells) was over 100 µM and the IC50 (CACO-2 cells; 72 h exposure) was over 100 µM.
For `CCCNC(=O)/C(=C/c1ccc([N+](=O)[O-])cc1)NC(=O)/C=C/c1cccs1` [Compound 5112, (Z)-3-(4-nitrophenyl)-N-propyl-2-[(E)-3-(thien-2-yl)acrylamidolacry]amide], the IC50 (HT-29 cells; monolayer) was over 100 µM, the IC50 (HCT-116 cells) was over 100 µM and the IC50 (CACO-2 cells; 72 h exposure) was 34.2 ± 1.1 µM.
`COc1cccc2c1C(=O)c1c(O)c3c(c(O)c1C2=O)C[C@@](O)(C(=O)CO)C[C@@H]3O[C@H]1C[C@H](N)[C@H](O)[C@H](C)O1` [Doxo, doxorubicin, reference compound] showed an IC50 (HT-29 cells; Homo sapiens, HT-29, monolayer) of 0.3 ± 0.01 µM, an IC50 (HCT-116 cells; Homo sapiens, HCT-116) of 0.6 ± 0.1 µM and an IC50 (CACO-2 cells; [2]) of 0.14 ± 0.05 µM.
